Assay results taken from publication PMC10065799, “High-throughput profiling of sequence recognition by tyrosine kinases and SH2 domains using bacterial peptide display” (eLife, 2023).
One block for each sequence: values may come before it.

Experiments:
Assay in all cases: pTyr-Var library bacterial peptide display kinase screen (enrichment scores)
c-Src kinase domain = c-Src kinase domain (Homo sapiens, UniProt P12931); type: biochemical; settings: for Screen: sheet "Src";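 on screen: log2 fold change in enrichment of variant over reference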
Fer kinase domain = type: biochemical, mouse; settings: sheet "Fer"
c-Abl kinase domain = biological target: T1, c-Abl kinase domain (Mus musculus, UniProt P00520); type: biochemical;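 further: log2 fold change in enrichment of variant over reference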
T1 sequence (P00520 242-493 limits assumed): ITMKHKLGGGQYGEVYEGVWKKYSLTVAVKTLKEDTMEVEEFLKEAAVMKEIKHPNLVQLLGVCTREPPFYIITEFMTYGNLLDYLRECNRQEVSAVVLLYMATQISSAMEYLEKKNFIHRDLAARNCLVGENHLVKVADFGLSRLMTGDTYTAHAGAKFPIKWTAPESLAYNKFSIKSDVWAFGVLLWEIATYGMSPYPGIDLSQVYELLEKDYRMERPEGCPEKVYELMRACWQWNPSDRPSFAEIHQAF

EPHB1 kinase domain = type: biochemical, human; settings: for Screen (variant relative to reference peptide, measured in the pTyr-Var library screen): sheet "EPHB1", variant seq vs reference seq, bacterial peptide display enrichment; for Screen: sheet EPHB1, effect of the variant peptide relative to its reference peptide in the pTyr-Var library screen (enrichment scores)
[1] = variant peptide versus its reference peptide in the pTyr-Var library screen
[2] = value of the variant peptide against its reference peptide in the pTyr-Var library screen with Fer
[3] = fig5-data2, sheet "Abl", Screen for the variant/reference peptide pair, pTyr-Var library
[4] = variant peptide relative to its reference peptide, pTyr-Var library screen enrichment
[5] = sheet "Abl", effect of variant peptide relative to its reference peptide in pTyr-Var library screen (enrichment)
[6] = effect of the variant peptide relative to its reference peptide in the pTyr-Var library screen

Screen (c-Abl kinase domain; [3]): -1.083
Sequence: DTLASYLDKVR [KRT12_Y139_R135T]

Screen (variant relative to reference peptide, measured in the pTyr-Var library screen) (EPHB1 kinase domain): 1.182
Sequence: LANNEYFFQVC [TTN_Y18997_R19000Q_YF]

Screen (c-Abl kinase domain; [3]): -0.6179
Sequence: PQIVKYRPDCI [LDHB_Y128_S129R]

Screen (c-Abl kinase domain; [5]): 1.107
Sequence: CTTIRYNFMCN [TP53_Y234_H233R_YF]

Screen (c-Abl kinase domain; [3]): 0.9369
Sequence: EDKSIYRRGAC [PRKCI_Y125_R130C]

Screen (c-Abl kinase domain; [3]): 0.4752
Sequence: ECIEFYELDKK [PMM2_Y145_R141C]

Screen (EPHB1 kinase domain): -1.134
Sequence: PAGSGYPAFLG [ATP6V1A_Y374_D371G_YF]

Screen (c-Abl kinase domain; [3]): -1.886
Sequence: LTQRTYMLENA [GPAA1_Y49_S51L]

Screen (c-Abl kinase domain; [5]): 3.465
Sequence: QFFQGYFNNNF [ZNF236_Y644_S643G]

Screen (EPHB1 kinase domain): -0.7312
Sequence: HSVLNYGVCVC [JAK2_Y613_L609S]

Screen (c-Abl kinase domain; [3]): 0.592
Sequence: LDPDSYNKFEN [FOXC1_Y159_M161K]

Screen (c-Abl kinase domain; [3]): 0.7292
Sequence: NFGTNYRVGSS [CPO_Y278_K273N_YF]

Screen (c-Abl kinase domain; [3]): 0.5588 | Screen (Fer kinase domain; [2]): -0.4348
Sequence: EEQFFYEKAIL [BCCIP_Y257_E254Q]

Screen (variant relative to reference peptide, measured in the pTyr-Var library screen) (EPHB1 kinase domain): 0.8704
Sequence: MGSFNYLGFPR [SPTLC2_Y178_A182P_YF]

Screen (c-Abl kinase domain; [3]): 1.189
Sequence: RNGDRYFKEIV [DCX_Y64_G67E]

Screen (c-Abl kinase domain; [5]): 2.193
Sequence: QLLIEYPPEEV [ZZZ3_Y670_K669E]

Screen (c-Abl kinase domain; [5]): -2.483 | Screen (Fer kinase domain; [4]): 0.6845
Sequence: SVCPDYDLCSI [SQSTM1_Y148_V153I]

Screen (Fer kinase domain; [2]): 1.926
Sequence: GLCSFYETSKM [MAGED2_Y449_R446C_YF]

Screen (Fer kinase domain; [2]): 3.48
Sequence: GLIPAYHWVIM [NMNAT1_Y64_R66W]

Screen (Fer kinase domain; [4]): 2.795
Sequence: RAMPVYEKAEH [TP63_Y231_K232E]

Screen (c-Abl kinase domain; [3]): -0.9512
Sequence: LRAGVYREKDQ [DNM2_Y626_P627R]

Screen (c-Abl kinase domain; [3]): 1.984
Sequence: QRRLIYRCQVG [NR2E3_Y81_R76Q]

Screen (Fer kinase domain; [2]): -0.3574
Sequence: QRRFLYFFSFL [PTEN_Y176_V175L_YF]

Screen (c-Abl kinase domain; [5]): 3.612
Sequence: APRKVYDTQDD [ZFPL1_Y215_R218Q]

Screen (c-Abl kinase domain; [3]): 1.067
Sequence: QDEPTYARSSK [PEAK1_Y616_H611Q]

Screen (c-Abl kinase domain; [5]): -0.03774
Sequence: KDPPDYKFQPR [SOX9_Y172_H169P_YF]

Screen (c-Abl kinase domain; [3]): 0.964
Sequence: CGTPEYRAPEI [PRKACA_Y205_L206R]

The next lines start with the sequence.

Sequence: NTGNFYDLFGG [PTPN11_Y63_D61N_YF]
Screen (c-Src kinase domain; [1]): 0.1419 | Screen (Fer kinase domain; [2]): 0.7498

Sequence: QAEELYFGKMG [YES1_Y159_W158L]
Screen (c-Src kinase domain; [1]): 2.237

Sequence: NTGFFYDLFGG [PTPN11_Y63_D61Y_YF]
Screen (c-Src kinase domain; [1]): -0.6353 | Screen (Fer kinase domain; [4]): -1.238

Sequence: RGDTVYTVNCM [KBTBD13_Y404_R408C]
Screen (c-Src kinase domain; [6]): -0.9987

Sequence: YDDGKYVYVVT
Enrichment score (mean) (c-Src kinase domain; pTyr-Var library screen with c-Src, sheet "Src substrates": annotated Src substrate sites, 11-residue peptide SITE_+/-5_AA, mean): 1.305

Sequence: VEDQFYRVDCF [FHL1_Y208_C209R_YF]
Screen (c-Src kinase domain; [6]): -0.6364 | Screen (c-Abl kinase domain; [3]): 0.3405

Sequence: GKSFIYAAFHA [KCNT1_Y563_T562I]
Screen (c-Src kinase domain; [6]): -0.6339

Sequence: ATRDVYNPFET [SCAMP3_Y41_L38R]
Screen (c-Src kinase domain; [1]): -1.143

Sequence: FSMGCYEISLE [HMGCL_Y198_G203E_YF]
Screen (c-Src kinase domain; [6]): -0.09414 | Screen (Fer kinase domain; [2]): -0.6623

Sequence: AVRFIYTIDGS [DCX_Y105_G100A_YF]
Screen (c-Src kinase domain; [6]): 0.6298

Sequence: AHAGEYGAVAL [HBA1_Y25_E28V]
Screen (c-Src kinase domain; [6]): 2.935

Sequence: LITTLYIGFLD [KCNQ1_Y267_G272D]
Screen (c-Src kinase domain; [6]): 0.3249 | Screen (Fer kinase domain; [2]): 0.7229

Sequence: MSRDVYSIDFF [NTRK2_Y702_T704I_YF]
Screen (c-Src kinase domain; [1]): 1.303

Sequence: STEAIYWRFSK [SH3PXD2B_Y42_R43W_YF]
Screen (c-Src kinase domain; [1]): 2.709

Sequence: TSPALYRLDLD [TRIL_Y352_A347T]
Screen (c-Src kinase domain; [1]): -0.36 | Screen (c-Abl kinase domain; [5]): -0.2355

Sequence: IGEVVYQRAAM [GRIN2A_Y502_V506A]
Screen (c-Src kinase domain; [6]): -0.3302

Sequence: QITQVYGFFHE [PPP2CA_Y127_D131H_YF]
Screen (c-Src kinase domain; [1]): 0.1908

Sequence: RRIHCYRGHLW [VHL_Y112_S111C]
Screen (c-Src kinase domain; [1]): -2.571 | Screen (variant relative to reference peptide, measured in the pTyr-Var library screen) (EPHB1 kinase domain): -1.56

Sequence: LNSFIYSLRNR [OR1A1_Y288_P285S]
Screen (c-Src kinase domain; [1]): 0.8467 | Screen (c-Abl kinase domain; [3]): 0.03527

Sequence: FDAHIYEGCVI [PRKCD_Y64_R67C]
Screen (c-Src kinase domain; [1]): 0.6982 | Screen (Fer kinase domain; [2]): 2.331

Sequence: LITTLYIDFLG [KCNQ1_Y267_G269D]
Screen (c-Src kinase domain; [6]): -1.548

Sequence: TAGFIYEKWEI [TEC_Y360_S359I]
Screen (c-Src kinase domain; [1]): 3.208 | Screen (Fer kinase domain; [4]): 3.032

Sequence: CFCSWYRGWAP [TIMP3_Y195_G190C_YF]
Screen (c-Src kinase domain; [1]): 2.542 | Screen (Fer kinase domain; [4]): 2.823

Sequence: REHTVYWEPRK [MAGEA4_Y240_G241W]
Screen (c-Src kinase domain; [6]): 1.621 | Screen (EPHB1 kinase domain): 3.741

Sequence: NACGLYHTMNG [GATA5_Y216_K218T]
Screen (c-Src kinase domain; [6]): 2.558

Sequence: VDGFVYKLHPS [GCK_Y413_S411F]
Screen (c-Src kinase domain; [6]): -2.399

Sequence: VTAALYGCLFE [BTD_Y536_R538C_YF]
Screen (c-Src kinase domain; [6]): -0.3028 | Screen (c-Abl kinase domain; [3]): -0.06766
